# Experimental data as given in patent publication US8455528B2, “Imidazole derivatives useful as inhibitors of FAAH” (Merck Sharp & Dohme Corp., priority 2008, dated 2013).
# Molecular target: T1, Human FAAH (Homo sapiens, UniProt O00519)
# T1 construct: The full length FAAH was subcloned into the mammalian expression vector, pcDEF.neo; expressed in transfected cells
# T1 sequence (O00519 1-579): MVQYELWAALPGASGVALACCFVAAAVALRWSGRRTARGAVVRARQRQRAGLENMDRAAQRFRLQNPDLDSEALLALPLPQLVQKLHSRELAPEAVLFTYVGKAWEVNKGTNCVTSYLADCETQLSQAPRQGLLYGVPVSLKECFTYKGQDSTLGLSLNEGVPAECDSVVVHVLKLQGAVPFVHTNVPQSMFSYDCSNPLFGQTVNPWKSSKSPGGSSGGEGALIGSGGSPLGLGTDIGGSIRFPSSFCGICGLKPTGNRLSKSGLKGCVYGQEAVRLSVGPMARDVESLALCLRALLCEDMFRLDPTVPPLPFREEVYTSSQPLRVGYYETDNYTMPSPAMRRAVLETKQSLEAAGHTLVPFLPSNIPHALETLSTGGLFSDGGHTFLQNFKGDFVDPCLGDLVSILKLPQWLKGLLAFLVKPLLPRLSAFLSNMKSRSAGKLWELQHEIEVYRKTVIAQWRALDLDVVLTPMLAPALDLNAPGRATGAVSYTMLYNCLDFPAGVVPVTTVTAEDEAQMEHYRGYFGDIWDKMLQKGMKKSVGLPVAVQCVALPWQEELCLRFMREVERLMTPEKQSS
# Test: Human FAAH lysate assay (CHO cell lysate, AAMCA fluorescent substrate)
# Type: biochemical
# Settings: FAAH inhibition, CHO cell lysate expressing human FAAH; read-out: Human Lysate
# Description: To assist in assay development stable cell lines for human, murine and rat full length FAAH were developed. Human FAAH cDNA (Accession No: NM-001441.1) was purchased from Origene (Rockville, Md.). The full length FAAH was subcloned into the mammalian expression vector, pcDEF.neo, using XbaI and EcoRI restriction sites and used for stable cell line generation. CHO cells expressing FAAH were used to prepare either crude cell lysate or microsome fractions. To harvest cells, tissue culture media was decanted, the monolayer washed three times with Ca^++Mg^++ free PBS and cells recovered after 15 min in enzyme free dissociation media (Millipore Corp, Billerica, Mass.). Cells were collected by centrifuging at 2000 rpm for 15 min. and the cell pellet re-suspended with 50 mM HEPES (pH 7.4) containing 1 mM EDTA and the protease inhibitors aprotinin (1 mg/ml) and leupeptin (100 μM). […] The pellet containing FAAH-enriched microsomes was re-suspend in 50 mM HEPES, (pH 7,4) 1 mM EDTA, and any remaining DNA sheared by passage of material through a 23 gauge needle and aliquots of enzyme were store at -80° C. prior to use. […] (American Radiolabeled Chemicals; 1 mCi/ml) with FAAH (Life Sciences (1995), 56, 1999-2005 and Journal of Pharmacology and Experimented Therapeutics (1997), 283, 729-734), Analytical. Biochemistry (2003), 318, 270-5. […] Analytical. Biochemistry (2005). 343, 143-51 […] Fluorescent release as a measure of FAAH activity was monitored by reading the plate in a CytoFluor Multiplate Reader ([…]). Whole cell assay is conducted with cells harvested after rinsing tissue culture flasks three times with Ca^++Mg^++ free PBS, incubating for 10 min in Enzyme free dissociation media and centrifuging for 5 minutes at 1,000 rpm in table top centrifuge. Cells are resuspended in assay buffer at desired cell number in (4×10^4 cells/assay in 96-well format; 1×10^4 cells/assay in 384-well format) and assayed as described. […] The reaction was terminated by addition of 2 volumes of chloroform:methanol (1:1) and mixed by vortexing. […] K., et al. A fluorescence-based assay for fatty acid amide hydrolase compatible with high-throughput screening. Anal. Biochem. 343:143-51 (2005) • Wilson S. J., et l. A high-throughput-compatible assay for determining the activity of fatty acid amide hydrolase. Anal Biochem. 318:270-5 (2003).
row,SMILES,IC50
1,"Cn1c(-c2ccccc2)nc(-c2ccc(C#N)cc2)c1Sc1ccc(Cl)cc1 [Ex 2, 4-{5-[(4-Chlorophenyl)thio]-1-methyl-2-phenyl-1H-imidazol-4-yl}benzonitrile]",21.2 nM
2,CS(=O)(=O)c1ccc(-c2nc(C3CCC3)[nH]c2Sc2ccc(Cl)cc2)cc1 [Ex 13],946 nM
3,Cn1c(C2CCC2)nc(-c2ccc(S(C)(=O)=O)cc2)c1Sc1ccc(Cl)cc1 [Ex 14],26.5 nM
4,"CC(C)c1nc(-c2ccc(S(C)(=O)=O)cc2)c(Sc2ccc(Cl)cc2)n1C [Ex 29, 5-[(4-Chlorophenyl)thio]-2-isopropyl-1-methyl-4-[4-(methylsulfonyl)phenyl]-1H-imidazole]",74.4 nM
5,"Cn1cnc(-c2ccc(C#N)cc2)c1Sc1ccc(Cl)cc1 [Ex 33, 4-{5-[(4-chlorophenyl)thio]-1-methyl-1H-imidazol-4-yl}benzonitrile]",363 nM
6,"Cn1c(-c2ccccn2)nc(-c2ccc(-c3nnco3)cc2)c1Sc1ccc(Cl)cn1 [Ex 36, 5-Chloro-2-({1-methyl-4-[4-(1,3,4-oxadiazol-2-yl)phenyl]-2-pyridin-2-yl-1H-imidazol-5-yl}thio)pyridine]",26.9 nM
7,"Cn1c(-c2ccccn2)nc(-c2ccc(C(O)C(F)F)cc2)c1Sc1ccc(Cl)cc1 (stereo not drawn) [Ex 57, 1-(4-{5-[(4-Chlorophenyl)thio]-1-methyl-2-pyridin-2-yl-1H-imidazol-4-yl}phenyl)-2,2-difluoroethanol]",21.4 nM
8,Cn1c(-c2ccccn2)nc(-c2ccc(-n3ccnn3)cc2)c1Sc1ccc(Cl)cc1 [Ex 66],16.6 nM
9,"Cn1c(-c2ccccn2)nc(-c2ccc(N)cc2)c1Sc1ccc(Cl)cc1 [Ex 98, 4-{5-[(4-Chlorophenyl)thio]-1-methyl-2-pyridin-2-yl-1H-imidazol-4-yl}aniline]",33.7 nM
